The subject of this data set is CCRIS mutagenicity, Ames/micronucleus/aberration tests. The data set is described as follows: CCRIS mutagenicity studies.
Setting [1] is: Test System: AMES SALMONELLA TYPHIMURIUM, Strain/Indicator: TA98, Metabolic Activation: NONE, Method: PREINCUBATION
Setting [2] is: Test System: AMES SALMONELLA TYPHIMURIUM, Strain/Indicator: TA98, Metabolic Activation: NONE, Method: STANDARD PLATE.
[3] abbreviates: Test System: AMES SALMONELLA TYPHIMURIUM, Strain/Indicator: TA100, Metabolic Activation: NONE, Method: PREINCUBATION
Where [4] appears, read: Test System: AMES SALMONELLA TYPHIMURIUM, Strain/Indicator: TA100, Metabolic Activation: NONE, Method: STANDARD PLATE.

Active and inactive are the calls of the source. The rule behind the calls is not given here.

On to `CCCSP(=O)(OCC)SCCC`, for which the mutagenic call is “inactive; negative” (End Point: In vitro chromosomal aberrations, Test System: Chinese hamster ovary (CHO) cells, Metabolic Activation: None); “inactive; negative” (End Point: UDS/DNA repair, Test System: Fischer 344 rat (male) hepatocytes, Metabolic Activation: None, Method: Autoradiography); “inactive; negative” (End Point: UDS, Test System: Fischer 344 rat hepatocytes, Metabolic Activation: None, Method: Autoradiography); “inactive; negative” (Test System: Ames Salmonella typhimurium, Strain/Indicator: TA98, Metabolic Activation: None, Method: Plate incorporation); “inactive; negative” (Test System: Ames Salmonella typhimurium, Strain/Indicator: TA98, Metabolic Activation: Rat, Liver, S-9, Method: Plate incorporation); “inactive; negative” (Test System: Ames Salmonella typhimurium, Strain/Indicator: TA100, Metabolic Activation: None, Method: Plate incorporation). Moreover, the mutagenic call reads like this: (Test System: Ames Salmonella typhimurium, Strain/Indicator: TA100, Metabolic Activation: Rat, Liver, S-9, Method: Plate incorporation) “inactive; negative”; (Test System: Ames Salmonella typhimurium, Strain/Indicator: TA1535, Metabolic Activation: None, Method: Plate incorporation) “inactive; negative”; (Test System: Ames Salmonella typhimurium, Strain/Indicator: TA1535, Metabolic Activation: Rat, Liver, S-9, Method: Plate incorporation) “inactive; negative”; (Test System: Ames Salmonella typhimurium, Strain/Indicator: TA1537, Metabolic Activation: None, Method: Plate incorporation) “inactive; negative”; (Test System: Ames Salmonella typhimurium, Strain/Indicator: TA1537, Metabolic Activation: Rat, Liver, S-9, Method: Plate incorporation) “inactive; negative”; (Test System: Ames Salmonella typhimurium, Strain/Indicator: TA1538, Metabolic Activation: None, Method: Plate incorporation) “inactive; negative”. Also, the mutagenic call runs as follows: (Test System: Ames Salmonella typhimurium, Strain/Indicator: TA1538, Metabolic Activation: Rat, Liver, S-9, Method: Plate incorporation) “inactive; negative”; (Test System: Chinese hamster ovary, Strain/Indicator: CHO-K1-BH4 (HGPRT), Metabolic Activation: None, Method: Suspension/plate) “inactive; negative”; (Test System: Chinese hamster ovary, Strain/Indicator: CHO-K1-BH4 (HGPRT), Metabolic Activation: Rat, Liver, S-9, Method: Suspension/plate) “inactive; negative”; (Test System: Mouse lymphoma cells, Strain/Indicator: L5178Y cells, Metabolic Activation: None, Method: Plate) “inactive; negative”; (Test System: Mouse lymphoma cells, Strain/Indicator: L5178Y cells, Metabolic Activation: S-9, Method: Plate) “inactive; negative”.

As for `ClC[C@@H](Br)CBr`, the mutagenic call (Test System: AMES SALMONELLA TYPHIMURIUM, Strain/Indicator: TA100, Metabolic Activation: RAT, LIVER, MICROSOMES, Method: PREINCUBATION) is “active; positive”.

As for `CCc1c2ccccc2cc2c1c1c(c3ccccc32)O1`, the mutagenic call under setting [1] was “active; positive”.

`O=NN1CCSC1[C@H](O)[C@@H](O)[C@@H](O)CO` (stereo partly drawn): the mutagenic call runs as follows: under setting [1], “inactive; negative”; under setting [2], “inactive; negative”; (Test System: AMES SALMONELLA TYPHIMURIUM, Strain/Indicator: TA98, Metabolic Activation: RAT, LIVER, S-9, AROCLOR 1254, Method: PREINCUBATION) “inactive; negative”; (Test System: AMES SALMONELLA TYPHIMURIUM, Strain/Indicator: TA98, Metabolic Activation: RAT, LIVER, S-9, AROCLOR 1254, Method: STANDARD PLATE) “inactive; negative”; under setting [3], “inactive; negative”; under setting [4], “inactive; negative”. The mutagenic call runs as follows: (Test System: AMES SALMONELLA TYPHIMURIUM, Strain/Indicator: TA100, Metabolic Activation: RAT, LIVER, S-9, AROCLOR 1254, Method: PREINCUBATION) “inactive; negative”; (Test System: AMES SALMONELLA TYPHIMURIUM, Strain/Indicator: TA100, Metabolic Activation: RAT, LIVER, S-9, AROCLOR 1254, Method: STANDARD PLATE) “inactive; negative”.

Consider `O=C(O)c1ccccc1[O-].O=C(O)c1ccccc1[O-].O=C(O)c1ccccc1[O-].[Cr+3]`, for which the mutagenic call (Test System: AMES SALMONELLA TYPHIMURIUM, Strain/Indicator: TA92, Metabolic Activation: NONE, Method: STANDARD PLATE) is “inactive; negative”; the mutagenic call (Test System: AMES SALMONELLA TYPHIMURIUM, Strain/Indicator: TA94, Metabolic Activation: NONE, Method: STANDARD PLATE) was “inactive; negative”; the mutagenic call under setting [2] is “inactive; negative”; the mutagenic call under setting [4] is “inactive; negative”.

As to `CCOC(=O)/C=C\C(=O)OCC`, the mutagenic call (Test System: MOUSE LYMPHOMA, Strain/Indicator: L5178Y (TK+/TK-), Metabolic Activation: NONE, Method: SUSPENSION/PLATE) was “active; positive”.

Turning to `[N-]=[N+]=NC[C@@H]1O[C@H](O)[C@H](O)[C@@H](O)[C@@H]1O`, the mutagenic call under setting [2] was “inactive; negative” and the mutagenic call under setting [4] was “active; positive”.

For `CN(Cc1ccc(Cl)cc1)N=O`, the mutagenic call is “active; positive” (Test System: AMES SALMONELLA TYPHIMURIUM, Strain/Indicator: TA1535, Metabolic Activation: HAMSTER, LIVER, S-9, AROCLOR 1254, Method: STANDARD PLATE) and “inactive; negative” (Test System: AMES SALMONELLA TYPHIMURIUM, Strain/Indicator: TA1535, Metabolic Activation: NONE, Method: STANDARD PLATE).

`Oc1cccc2sc3ccccc3c12`: the mutagenic call (Test System: CHINESE HAMSTER OVARY, Strain/Indicator: CHO-K1-BH4 (HGPRT)/6-THIOGUANINE, Metabolic Activation: RAT, LIVER, S-9, AROCLOR (4%)) is “active; positive”.

Regarding `ClC[C@@]1(C(Cl)Cl)C2[C@@H](Cl)[C@H](Cl)C1(C(Cl)Cl)[C@@H](Cl)[C@@H]2Cl`, under setting [3], the mutagenic call is “inactive; negative”.

For the origin of these results see PubChem BioAssay AID1259407 (Chemical Carcinogenesis Research Information System (CCRIS), 2018).
